From patent publication US5972894A, “Peptides having potassium channel opener activity” (Cytran, Inc., priority 1997, dated 1999) come the findings set out here.

Assay [1] relates to rats. As to the kind of experiment: Early ischemic myocardial arrhythmias after coronary artery ligation. Format: in vivo. The conditions noted are these: 0.5 mg/kg i.v.; 30 min after coronary occlusion. On the procedure:
White random-bred male rats weighing 200 g were given light ether anesthesia and were then immobilized and artificially ventilated. The descending branch of the left coronary artery of each rat was ligated. Immediately following ligation, a test or control substance was administered to each rat through the catheterized femoral vein, and an ECG recording was initiated (standard lead II) and maintained for the next 30 minutes.
GE and VT served as test substances and were administered to animals in the respective test groups at doses of 0.1, 1.0, and 10.0 mg/kg. The β-adrenergic blocking agent, propranolol (Obzidan, Germed, Germany), served as the positive control substance and was administered intravenously to each animal in the positive control group at a dose of 0.5 mg/kg. Physiological saline served as the negative control substance and was administered intravenously to animals in the negative control group. Each dose of each test or control substance was tested separately on a group of nine animals.
The following parameters were evaluated based upon the ECG recordings: (i) the number of ventricular extrasystoles that occurred within a 30-minute observation period following coronary occlusion; (ii) the overall cumulative duration of ventricular tachycardias (i.e., the summation of duration of individual paroxysmal ventricular rhythm disturbances in seconds) occurring within the 30-minute observation period; and (iii) the overall duration (in seconds) of the ventricular fibrillations occurring within the 30-minute observation period. The data were processed electronically and statistical comparisons were made between the values obtained from the animals in the experimental test groups and those in the different respective control groups.

The subject of assay [2] is rats. As to the kind of experiment: CPK activity in blood serum 1 hour after coronary occlusion. It is filed as in vivo. Conditions: dose printed --; i.v.; 1 hour after coronary occlusion. On the procedure: White random-bred male rats weighing approximately 200 g were anesthetized using a light ether administration and then immobilized and artificially ventilated. […] Immediately after ligation, a test substance, positive, control substance, or negative control substance (described below) was administered to a rat through a catheterized femoral vein. Each dose of each test substance or positive or negative control substance was administered to an experimental or control group of 9 test rats. In this study, GE and VT served as test substances, propranolol served as the positive control substance, and physiological saline served as the negative control substance. Each test rat in an experimental group was given a dose of either 0.1, 1.0, or 10.0 milligram GE per kilogram of body weight of the subject animal (mg/kg) or 0.1, 1.0, or 10.0 milligram VT per kilogram of body weight of the animal. Each animal of the positive control group received an intravenous dose of 0.5 mg of β-adrenergic blocking agent, propranolol (Obzidan, Germed, Germany) per kilogram of body weight. Propranolol is commonly used to manage cardiac arrhythmia and there is some evidence that the agent may reduce the extent of ischemic damage to the heart. […] Each animal of the negative control group received physiological saline.
One hour after initiation of the coronary artery occlusion, each test animal was sacrificed, its blood was collected, and the CPK activity in its blood serum was measured. CPK activity was determined by using a standard biochemical method, such as that commercially available from the Lachema Company (Czechia) in its test kit, and by following the manufacturer's process instructions included in the package insert.
As a supplementary control for the possible trauma caused by the surgical procedure, a group of 9 sham-operated rats was included in the study. These test animals were subjected to chest dissection, but not to coronary artery occlusion. These "sham-operated" animals were not treated with any test or control substances and were euthanized 1 hour after surgery. Their blood was then collected for determination of CPK activity.

With `CC(C)NCC(O)COc1cccc2ccccc12` (stereo not drawn) [Propranolol, propranolol, reference compound], in the assay on rats [1], the “Number of Ventricular Extrasystoles” value worked out at 61.22 and the “Overall Duration of Ventricular Tachycardia” value was determined as 56.74 s. Moreover, the “CPK Activity in blood serum” value in the assay on rats [2] was 0.170 (±0.011) mcCat/L.
